In patent US8173645B2 (Takeda San Diego, Inc., priority 2007, dated 2012) one finds EC50 and Emax data, which are given here for 23 compounds.

Some results are limits rather than exact numbers.

The assay addresses T1, glucokinase (GK), residues 12-465 of the human enzyme (Homo sapiens, UniProt P35557).
T1 construct: I.D. No. 1 corresponds to residues 12-465 of glucokinase; made in house; host or cells: E. coli DH10b-Tlr
T1 sequence (P35557 with tags, fused parts or gaps isoform P35557-2): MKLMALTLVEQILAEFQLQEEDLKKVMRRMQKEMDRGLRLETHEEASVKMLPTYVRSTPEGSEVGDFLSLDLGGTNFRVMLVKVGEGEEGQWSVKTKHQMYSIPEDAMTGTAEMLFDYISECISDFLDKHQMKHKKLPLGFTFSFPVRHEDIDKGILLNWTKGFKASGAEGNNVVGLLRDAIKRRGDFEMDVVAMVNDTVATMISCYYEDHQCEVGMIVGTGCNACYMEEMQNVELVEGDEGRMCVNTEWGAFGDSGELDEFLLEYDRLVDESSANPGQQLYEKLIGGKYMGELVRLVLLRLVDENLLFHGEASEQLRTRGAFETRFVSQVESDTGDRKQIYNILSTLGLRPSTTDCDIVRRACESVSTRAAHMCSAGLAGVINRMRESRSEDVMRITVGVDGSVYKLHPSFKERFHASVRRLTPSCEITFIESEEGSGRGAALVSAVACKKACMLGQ
Briefly: Enzymatic glucokinase activity assay (KinaseGlo luminescence, ATP consumption). It counts as biochemical. The conditions noted are these: 5 μM ATP, 5 mM Glucose; for EC50: GK activation, Kact = concentration giving 50% of the maximal increase in GK activity, read-out: pKact; for Emax: calculated maximal gain in GK enzyme activity at a saturating concentration of the compound, read-out: % ACTmax. In a few lines:
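C-terminally FLAG-tagged enzyme expressed in E. coli and purified. Reaction: 25 mM Hepes pH 7.2, 25 mM NaCl, 10 mM MgCl2, 0.01% Brij35, 1 mM DTT, 5 μM ATP, 5 mM glucose, 2% DMSO, 60 min at room temperature. Remaining ATP was read by luciferase luminescence; pKact and % ACTmax came from nonlinear fits of 11-point 2-fold dilutions.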

For the compound `O=C(Nc1ncc(Cl)s1)[C@H](CC1CCOCC1)N1CCN(S(=O)(=O)c2cccs2)CC1=O` [Example 37, (S)-N-(5-chlorothiazol-2-yl)-2-(2-oxo-4-(thiophen-2-ylsulfonyl)piperazin-1-yl)-3-(tetrahydro-2H-pyran-4-yl)propanamide], the EC50 is at most 631 nM and the Emax was 74.1 to 97%.

Turning to `O=C(Nc1nccs1)[C@H](CC1CCCCC1)N1CCN(C(=O)NC2CCCC2)CC1=O` [Example 140, (S)-4-(3-cyclohexyl-1-oxo-1-(thiazol-2-ylamino)propan-2-yl)-N-cyclopentyl-3-oxopiperazine-1-carboxamide], the EC50 was at least 3160 nM and the Emax is 74.1 to 97%.

Turning to `O=C(Nc1nccs1)[C@H](CC1CCCCC1)N1CCN(S(=O)(=O)c2cccc([N+](=O)[O-])c2)CC1=O` [Example 156, (S)-3-cyclohexyl-2-(4-(3-nitrophenylsulfonyl)-2-oxopiperazin-1-yl)-N-(thiazol-2-yl)propanamide], the EC50 lay in the range of 1580 to 2510 nM and the Emax was 97.1 to 107%.

As to `Cc1ccc(S(=O)(=O)N2CCN([C@@H](CC3CCCCC3)C(=O)Nc3nccs3)C(=O)C2)cc1F` [Example 189, (S)-3-cyclohexyl-2-(4-(3-fluoro-4-methylphenylsulfonyl)-2-oxopiperazin-1-yl)-N-(thiazol-2-yl)propanamide], the EC50 was at most 631 nM and the Emax is 108 to 119%.

`Cc1ccc(F)cc1S(=O)(=O)N1CCN([C@@H](CC2CCCCC2)C(=O)Nc2nccs2)C(=O)C1` [Example 191, (S)-3-cyclohexyl-2-(4-(5-fluoro-2-methylphenylsulfonyl)-2-oxopiperazin-1-yl)-N-(thiazol-2-yl)propanamide]: the EC50 was at most 631 nM and the Emax is 108 to 119%.

Take `O=C(Nc1nccs1)[C@H](CC1CCCCC1)N1CCN(S(=O)(=O)c2ccc(F)cc2F)CC1=O` [Example 58, (S)-3-cyclohexyl-2-(4-(2,4-difluorophenylsulfonyl)-2-oxopiperazin-1-yl)-N-(thiazol-2-yl)propanamide]: the EC50 is 794 to 1260 nM and the Emax is 108 to 119%.

As to `O=C(Nc1nccs1)[C@H](CC1CCCCC1)N1CCN(S(=O)(=O)C2CC2)CC1=O` [Example 96, (S)-3-cyclohexyl-2-(4-(cyclopropylsulfonyl)-2-oxopiperazin-1-yl)-N-(thiazol-2-yl)propanamide], the EC50 was in the range of 794 to 1260 nM and the Emax was 108 to 119%.

Take `Cn1cc(S(=O)(=O)N2CCN([C@@H](CC3CCCCC3)C(=O)Nc3nccs3)C(=O)C2)c(C(F)(F)F)n1` [Example 198, (S)-3-cyclohexyl-2-(4-(1-methyl-3-(trifluoromethyl)-1H-pyrazol-4-ylsulfonyl)-2-oxopiperazin-1-yl)-N-(thiazol-2-yl)propanamide]: the EC50 fell in the range of 1580 to 2510 nM and the Emax was 108 to 119%.

In the case of `Cc1ccc(S(=O)(=O)N2CCN([C@@H](CC3CCCCC3)C(=O)Nc3nccs3)C(=O)C2)cc1` [Example 202, (S)-3-cyclohexyl-2-(2-oxo-4-tosylpiperazin-1-yl)N-(thiazol-2-yl)propanamide], the EC50 fell in the range of 1580 to 2510 nM and the Emax is 108 to 119%.

In the case of `O=C(Nc1nccs1)[C@H](CC1CCCCC1)N1CCN(C(=S)NC2CC2)CC1=O` [Example 129, (S)-3-cyclohexyl-2-(4-(cyclopropylcarbamothioyl)-2-oxopiperazin-1-yl)-N-(thiazol-2-yl)propanamide], the EC50 lay in the range of 1580 to 2510 nM and the Emax is 97.1 to 107%.

Consider `O=C(Nc1nccs1)[C@H](CC1CCCCC1)N1CCN(S(=O)(=O)c2cccc(Cl)c2)CC1=O` [Example 67, (S)-2-(4-(3-chlorophenylsulfonyl)-2-oxopiperazin-1-yl)-3-cyclohexyl-N-(thiazol-2-yl)propanamide], for which the EC50 was at most 631 nM and the Emax is 108 to 119%.

`O=C(Nc1nccs1)[C@H](CC1CCCCC1)N1CCN(C(=O)Nc2ccc(OCc3ccccc3)cc2)CC1=O` [Example 146, (S)-N-(4-(benzyloxy)phenyl)-4-(3-cyclohexyl-1-oxo-1-(thiazol-2-ylamino)propan-2-yl)-3-oxopiperazine-1-carboxamide]: the EC50 was at least 3160 nM and the Emax was at most 74%.

For `COc1ccc(CNC(=S)N2CCN([C@@H](CC3CCCCC3)C(=O)Nc3nccs3)C(=O)C2)cc1` [Example 122, (S)-3-cyclohexyl-2-(4-(4-methoxybenzylcarbamothioyl)-2-oxopiperazin-1-yl)-N-(thiazol-2-yl)propanamide], the EC50 was 1580 to 2510 nM and the Emax is 74.1 to 97%.

On to `COc1ccc(S(=O)(=O)N2CCN([C@@H](CC3CCCCC3)C(=O)Nc3nccs3)C(=O)C2)cc1OC` [Example 88, (S)-3-cyclohexyl-2-(4-(3,4-dimethoxyphenylsulfonyl)-2-oxopiperazin-1-yl)-N-(thiazol-2-yl)propanamide], for which the EC50 was at least 3160 nM and the Emax was 97.1 to 107%.

With `Cc1ccc([N+](=O)[O-])cc1S(=O)(=O)N1CCN([C@@H](CC2CCCCC2)C(=O)Nc2nccs2)C(=O)C1` [Example 199, (S)-3-cyclohexyl-2-(4-(2-methyl-5-nitrophenylsulfonyl)-2-oxopiperazin-1-yl)-N-(thiazol-2-yl)propanamide], the EC50 was at most 631 nM and the Emax was 74.1 to 97%.

Take `COc1ccc2nc(NC(=O)C(CC3CCOCC3)N3CCN(S(=O)(=O)C4CC4)CC3=O)sc2n1` (stereo not shown) [Example 26, 2-(4-(cyclopropylsulfonyl)-2-oxopiperazin-1-yl)-N-(5-methoxythiazolo[5,4-b]pyridin-2-yl)-3-(tetrahydro-2H-pyran-4-yl)propanamide]: the EC50 is at least 3160 nM and the Emax is 74.1 to 97%.

With `CC(C)C[C@@H](C(=O)Nc1ncc(Cl)s1)N1CCN(S(=O)(=O)C2CC2)CC1=O` [Example 10, (S)—N-(5-chlorothiazol-2-yl)-2-(4-(cyclopropylsulfonyl)-2-oxopiperazin-1-yl)-4-methylpentanamide], the EC50 lay in the range of 794 to 1260 nM and the Emax is at least 119%.

`Cc1cc(S(=O)(=O)N2CCN([C@@H](CC3CCCCC3)C(=O)Nc3nccs3)C(=O)C2)c(C)o1` [Example 181, (S)-3-cyclohexyl-2-(4-(2,5-dimethylfuran-3-ylsulfonyl)-2-oxopiperazin-1-yl)-N-(thiazol-2-yl)propanamide]: the EC50 is at most 631 nM and the Emax is 108 to 119%.

For the compound `O=C(Nc1nccs1)[C@H](CC1CCCCC1)N1CCN(S(=O)(=O)c2ccc(Cl)c(Cl)c2)CC1=O` [Example 90, (S)-3-cyclohexyl-2-(4-(3,4-dichlorophenylsulfonyl)-2-oxopiperazin-1-yl)-N-(thiazol-2-yl)propanamide], the EC50 is 794 to 1260 nM and the Emax is at most 74%.

As for `Cc1noc(C)c1S(=O)(=O)N1CCN([C@@H](CC2CCCCC2)C(=O)Nc2nccs2)C(=O)C1` [Example 173, (S)-3-cyclohexyl-2-(4-(3,5-dimethylisoxazol-4-ylsulfonyl)-2-oxopiperazin-1-yl)-N-(thiazol-2-yl)propanamide], the EC50 was at least 3160 nM and the Emax is 74.1 to 97%.

Turning to `O=C(Nc1nccs1)[C@H](CC1CCCCC1)N1CCN(C(=O)Nc2ccc(C(F)(F)F)cc2)CC1=O` [Example 142, (S)-4-(3-cyclohexyl-1-oxo-1-(thiazol-2-ylamino)propan-2-yl)-3-oxo-N-(4-(trifluoromethyl)phenyl)piperazine-1-carboxamide], the EC50 was at least 3160 nM and the Emax was at most 74%.

For `O=C(Nc1nccs1)[C@H](CC1CCCCC1)N1CCN(S(=O)(=O)c2cc(Cl)cc(Cl)c2)CC1=O` [Example 57, (S)-3-cyclohexyl-2-(4-(3,5-dichlorophenylsulfonyl)-2-oxopiperazin-1-yl)-N-(thiazol-2-yl)propanamide], the EC50 was at most 631 nM and the Emax is 74.1 to 97%.

On to `O=C(Nc1nccs1)[C@H](CC1CCCCC1)N1CCN(S(=O)(=O)c2ccc(Br)cc2)CC1=O` [Example 204, (S)-2-(4-(4-bromophenylsulfonyl)-2-oxopiperazin-1-yl)-3-cyclohexyl-N-(thiazol-2-yl)propanamide], for which the EC50 was in the range of 1580 to 2510 nM and the Emax is 74.1 to 97%.
